Experimental data as given in paper PMC7552967, “Anti-Melanoma Activities of Artemisone and Prenylated Amino-Artemisinins in Combination With Known Anticancer Drugs” (Frontiers in Pharmacology, 2020).

Tests used:
A375 melanoma cells [1] = assay: MTT cell viability assay, A375; assay type: cell-based, human; details: for IC50: MTT, 24 h, combinations 1:1
Text: (§1) The human cell lines TK10 (human kidney adenocarcinoma), UACC62 (human melanoma) and MCF7 (human breast adenocarcinoma) were obtained from the National Cancer Institute (NCI) as part of a panel widely studied for drug screening and molecular target identification. […] The nontumorigenic human immortalized keratinocyte (HaCaT) cells were a kind donation by the School of Anatomical Sciences, Faculty of Health Sciences, University of the Witwatersrand, South Africa. […] All reagents were of analytical grade and were obtained from Merck (Darmstadt, Germany) unless stated otherwise. Cells were cultured in Dulbecco’s modified essential medium (DMEM; Hyclone, GE healthcare, South Logan, UT, USA) containing 10% fetal bovine serum (FBS), 1% penicillin/streptomycin, 1% 200 mM L-Glutamine and 1% nonessential amino acids (Lonza, Basel, Switzerland) at 37°C in a humidified atmosphere of 5% CO2. Stock solutions of the compounds were prepared in dimethyl sulfoxide (DMSO). All subsequent dilutions were prepared in serum-free DMEM and vehicle controls were included in all experiments
(§2) The growth inhibitory effects of the compounds were tested in the 3-cell line panel consisting of TK10 (renal), UACC62 (melanoma) and MCF7 (breast) cancer cells by Sulforhodamine B (SRB) assay. […] Compounds prepared in DMSO were tested at 0.01–100 µM serial dilutions to establish initial inhibitory concentrations. […] After 24 h exposure to compounds, growth medium was removed, cells rinsed twice with 1 ml of phosphate buffered saline (PBS) and 100 µl fresh serum-free medium containing 5 mg/ml MTT solution was added MTT solution was prepared fresh for each analysis). Cells were then incubated for 4 h at 37°C, after which the MTT was removed and substituted with 100 µl dimethyl sulfoxide (DMSO) to dissolve the formazan crystals for an h at 37°C. After incubation, cell viability was determined using a microplate reader (BioTek®, Vermont, USA) at an excitation wavelength of 560 nm and emission wavelength of 630 nm with DMSO measured as a blank. Cell viability was expressed as a percentage relative to the untreated control, which is assumed to be 100% viable. For a positive control, cells were treated with 0.01% Triton-X 100 (Sigma-Aldrich, St Louis, MO, USA) for a period of 4 h. Using the MTT assay data, IC50 values were calculated using GraphPad Prism 8. Data were normalized to the positive (alleged to be 0% viable) and negative controls (presumed to be 100% viable), followed by the log-transformation of the concentration values. […] A crude therapeutic index (fold decrease in IC50 value) was calculated as the IC50 of the noncancerous cell-line/IC50 of the cancerous cell line. […] Drug interactions were evaluated for synergism, additivity or antagonism using multiple drug effect analysis, based on the median-principle. Cells were treated with the drug combinations for 24 h and analyzed. The CompuSyn (ComboSyn, Inc. NJ, USA) software package was used to generate the median-effect plots and combination index plots. […] All experiments were performed at least in triplicate and repeated independently.
(§3) Next, the quantitative colorimetric MTT assay was used to determine in vitro cell viability with A375 (melanoma) and HaCat (nonmalignant keratinocyte) cells. […] The IC50 was used to determine a crude therapeutic index (fold increase or decline in IC50).

A375 melanoma cells [2] = assay: LDH release membrane integrity assay, A375; assay type: cell-based, human; details: for LDH release, result in words: IC50 concentrations, 24 h (Table 3, Figure 6C); for A375 (% LDH release): compounds at their IC50 concentrations, 24 h, combinations 1:1, relative to maximum release
Text: (§4) In order to determine cell membrane integrity, the CytoTox-ONE™ Homogeneous Membrane Integrity Assay (Promega, Madison, WO, USA) was employed. This fluorometric assay measures the release of LDH from cells with damaged cell membranes. […] The manufacturer’s instructions were followed to determine the fluorescence at an excitation wavelength of 560 nm and an emission wavelength of 590 nm. In order to calculate the percentage cytotoxicity, the average fluorescent values of the background medium were subtracted from all average fluorescent values of the experimental samples and the positive control. Cytotoxicity is expressed as a percentage relative to the positive control, which is assumed to be responsible for 100% LDH release. The fold increase in LDH release was taken as the indication of the selectivity toward melanoma cell membranes, calculated as the […]. All experiments were performed at least in triplicate and independently repeated. Statistical significant differences were calculated with one-way ANOVA.
(§5) Results are expressed relative to the untreated control and the maximum release sample, which was set as having 0% and 100% LDH release respectively. The LDH released from the nonmalignant HaCat cells and the A375 melanoma cells was then used to deduce the selectivity of the compounds against melanoma cell membranes.

[3] = tested on: HaCat normal keratinocytes; assay: LDH release membrane integrity assay, HaCat; details: compounds at their IC50 concentrations, 24 h; combinations 1:1; relative to maximum release
Text: as §4, §5

[4] = tested on: HaCat normal keratinocytes; assay: MTT cell viability assay, HaCat; assay type: cell-based, human; details: 24 h; for CC50: Homo sapiens, HaCaT, combinations 1:1, mean ± SD, read-out: HaCat IC50
Text: as §1, §2, §3

[5] = tested on: HaCat normal keratinocytes; assay: Intracellular ROS, DCFH-DA assay, HaCat; assay type: cell-based, human; details: 12 h treatment, result in words
Protocol: HaCat and A375 cells were seeded at 25,000 cells/well in 96-well plates (Black plate, Clear bottom, Corning, Costar®, NY, USA) and incubated until cells were ~90% confluent. Serum-free DMEM without phenol red (Thermo Fisher Scientific, Gibco, Carlsbad, CA, USA) was used for all experiments. Cells were exposed to compounds or H2O2 (500 µM) for 12 h. Cell staining with ROS fluorescent indicator 2’,7’-dichlorodihydrofluorescein diacetate (DCFH-DA) was performed 1.5 h before the end of the 12-h exposure time. A kinetic analysis was then performed at 37°C using a microplate reader (SpectraMax® ParadigmTM Molecular Devices, Sunnyvale, CA, USA) by measuring the DCF fluorescence (excitation 485 nm and emission 535 nm) every 10 min for 1 h. […] The Bradford assay (Coomassie blue colorimetric method) was then performed in order to determine the relative amount of protein per well, as an indication of cell number per well, and all fluorescence measurements were normalized relative to the cell number. The background fluorescence produced by blank medium controls and unstained but treated cell controls were subtracted from DCFH-DA stained cells. The DCF fluorescence measured at the beginning of the analysis (time 0) was subtracted from the DCF fluorescence at the indicated times for the kinetic analysis (results not shown). […]
The levels of intracellular ROS were determined using the DCFH-DA assay. […]

SMILES	IC50 (A375 melanoma cells [1]; Homo sapiens, A-375, mean ± SD)	LDH release, result in words (A375 melanoma cells [2])	A375 (% LDH release) (A375 melanoma cells [2])	HaCat (% LDH release) [3]	CC50 [4]	Intracellular ROS (DCF fluorescence fold change vs untreated control) [5]	Therapeutic index (TI) (A375 melanoma cells [1]; IC50 of HaCat cells/IC50 of A375 cells)	IC50 (A375 melanoma cells [1]; results from elesclomol-Cu(II) reported in nM)	Fold increase in LDH release (A375 melanoma cells [2]; selectivity toward melanoma cell membranes, A375 vs HaCat)	IC50 ([4]; results from elesclomol-Cu(II) reported in nM, combinations 1:1)
O=C(O)c1cc(/N=N/c2ccc(S(=O)(=O)Nc3ccccn3)cc2)ccc1O [Sulfasalazine 8, sulfasalazine]	569800 ± 2950 nM	did not significantly increase the release of LDH	21 ± 0.96%	35 ± 1.02%	2223 ± 5.37 µM	–	–	–	–	–
CN([N-]C(=O)CC(=O)[N-]N(C)C(=[SH+])c1ccccc1)C(=[SH+])c1ccccc1.[Cu] [Elesclomol-Cu(II) 1-Cu, elesclomol-Cu(II)]	–	did not significantly increase the release of LDH	21 ± 0.94%	16 ± 0.79%	–	no significant increased intracellular ROS	2.8	1.72 ± 0.23 nM	1.3	4.88 ± 0.56 nM
COc1cc([C@@H]2c3cc4c(cc3[C@@H](O[C@@H]3O[C@@H]5CO[C@@H](C)O[C@H]5[C@H](O)[C@H]3O)[C@H]3COC(=O)[C@H]23)OCO4)cc(OC)c1O [Etoposide 9, etoposide]	43700 ± 1370 nM	did not significantly increase the release of LDH	11 ± 0.56%	7 ± 0.31%	> 13000 µM	–	–	–	–	–
